Results taken from article PMC6017115, “Inhibitory Effect of Sauchinone on UDP-Glucuronosyltransferase (UGT) 2B7 Activity” (Molecules : A Journal of Synthetic Chemistry and Natural …, 2018).
Marks after values point to notes of the source that are not given here. Each block holds one molecule with its values, some of them ahead of it.

Legend:
UGT1A9 = biological target: T1, UGT1A9 (Homo sapiens, UniProt O60656); assay: Inhibition of UGT1A9 (propofol glucuronidation) in human liver microsomes; format: in vitro ADME; details: substrate 100 μM propofol, mean (minimum–maximum)
T1 construct: The reaction mixture containing 0.25 mg/mL protein of HLM; tissue Corning Life Sciences 452156; host or cells: pooled human liver microsomes, 50 donors
T1 sequence (O60656 26-530): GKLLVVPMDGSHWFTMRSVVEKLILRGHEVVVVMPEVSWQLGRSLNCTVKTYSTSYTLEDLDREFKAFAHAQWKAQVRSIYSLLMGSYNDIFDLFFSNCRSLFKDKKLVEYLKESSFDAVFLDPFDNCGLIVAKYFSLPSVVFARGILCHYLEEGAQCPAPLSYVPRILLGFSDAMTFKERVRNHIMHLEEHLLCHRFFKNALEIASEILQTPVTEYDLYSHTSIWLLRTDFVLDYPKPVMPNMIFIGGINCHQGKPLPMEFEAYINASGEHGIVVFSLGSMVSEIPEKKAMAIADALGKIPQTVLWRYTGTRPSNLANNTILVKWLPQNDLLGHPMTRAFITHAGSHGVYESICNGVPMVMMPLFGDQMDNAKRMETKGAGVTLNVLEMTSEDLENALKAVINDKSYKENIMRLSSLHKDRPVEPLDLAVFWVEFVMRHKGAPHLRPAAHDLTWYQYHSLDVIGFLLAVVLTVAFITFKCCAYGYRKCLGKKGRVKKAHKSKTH
Description: (§1) Their IC50 values were compared to that of sauchinone. […] UGT-mediated activities in the presence of sauchinone as an inhibitor were expressed as percentages of corresponding control values (in absence of sauchinone). From percentages of control activity versus inhibitor concentrations, a sigmoid shaped curve was fitted to the data and IC50 as an enzyme inhibition parameter was calculated by fitting the Hill equation to the data using GraphPad Prism 5 (GraphPad Software Inc., San Diego, CA, USA).

UGT1A4 = biological target: T2, UGT1A4 (Homo sapiens, UniProt P22310); assay: Inhibition of UGT1A4 (trifluoperazine glucuronidation) in human liver microsomes; format: in vitro ADME
T2 construct: The reaction mixture containing 0.25 mg/mL protein of HLM; tissue Corning Life Sciences 452156; host or cells: pooled human liver microsomes, 50 donors
T2 sequence (P22310 29-534): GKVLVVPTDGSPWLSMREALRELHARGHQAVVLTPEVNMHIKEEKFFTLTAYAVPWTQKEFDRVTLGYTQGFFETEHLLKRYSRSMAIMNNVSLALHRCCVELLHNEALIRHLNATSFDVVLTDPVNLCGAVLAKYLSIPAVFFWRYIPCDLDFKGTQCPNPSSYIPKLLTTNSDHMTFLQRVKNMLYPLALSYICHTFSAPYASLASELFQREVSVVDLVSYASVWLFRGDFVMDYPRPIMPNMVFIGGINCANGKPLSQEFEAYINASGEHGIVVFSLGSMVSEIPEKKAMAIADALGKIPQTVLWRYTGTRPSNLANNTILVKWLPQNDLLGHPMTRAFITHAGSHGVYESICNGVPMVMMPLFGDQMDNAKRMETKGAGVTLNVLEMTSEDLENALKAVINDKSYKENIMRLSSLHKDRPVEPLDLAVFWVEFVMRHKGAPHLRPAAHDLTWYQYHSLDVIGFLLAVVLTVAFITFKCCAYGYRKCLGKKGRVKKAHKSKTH
Description: as §1

UGT2B7 = biological target: T3, UGT2B7 (Homo sapiens, UniProt P16662); assay: Enzyme kinetic assay (Ki, Dixon plot) of UGT2B7-mediated zidovudine glucuronidation; details: human, pH 7.6
T3 sequence (P16662 24-529): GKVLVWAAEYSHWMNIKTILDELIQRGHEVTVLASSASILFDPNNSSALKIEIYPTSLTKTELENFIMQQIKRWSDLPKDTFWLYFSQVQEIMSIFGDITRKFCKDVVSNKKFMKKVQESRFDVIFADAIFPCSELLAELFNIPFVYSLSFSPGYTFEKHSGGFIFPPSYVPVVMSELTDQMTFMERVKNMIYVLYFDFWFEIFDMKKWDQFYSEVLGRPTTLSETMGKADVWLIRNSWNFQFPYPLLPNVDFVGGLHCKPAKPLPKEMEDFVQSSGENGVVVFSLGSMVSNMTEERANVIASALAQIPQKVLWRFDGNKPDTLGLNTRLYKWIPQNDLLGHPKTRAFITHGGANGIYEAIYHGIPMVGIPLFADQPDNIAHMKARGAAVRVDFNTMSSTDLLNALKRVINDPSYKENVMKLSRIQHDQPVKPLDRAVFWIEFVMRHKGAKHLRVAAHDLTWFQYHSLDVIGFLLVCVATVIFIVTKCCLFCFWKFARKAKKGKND
Description: Inhibitory effects of sauchinone on UGT1A1, 1A3, 1A4, 1A6, 1A9, and 2B7 activities were evaluated using HLMs. […] Spiked volume of UGT cocktail set was 1% (v/v) of total volume of mixture. […] The reaction was initiated by adding 5 mM UDPGA to a final volume of 150 μL and incubated at 37 °C for 15 or 60 min in a thermomixer at 500 rpm. Each reaction was stopped by adding 150 μL of ice-cold methanol containing 50 ng/mL IS. These mixtures were then centrifuged (12,000 rpm for 10 min at 4 °C) and 5 μL of the supernatant was injected into a UPLC-MS/MS system. […] Their IC50 values were compared to that of sauchinone. All inhibitors were dissolved in methanol (except for hecogenin, which was dissolved in dimethyl sulfoxide) and serially diluted to the required concentrations using the same solutions. The final concentration of organic solvent of inhibitors was 1% (v/v). All studies were performed in triplicate and mean values were used in the analysis. The half maximal inhibition constant (IC50) of sauchinone on UGT isoforms was estimated using GraphPad program.
Based on IC50 values, Ki values of sauchinone for UGT1A6 and 2B7 were determined. Concentrations of 0–200 μM of sauchinone were used. Other procedures were similar to those mentioned above in the study of reversible inhibitory effects of sauchinone. Inhibitory characteristics of sauchinone were initially estimated by nonlinear least squares regression analysis and Ki values were determined by Dixon plots.

[1] = Pharmacokinetic study of zidovudine with or without sauchinone in mice; details: for CLNR / AUC(0-t) / AUC / clearance / CL renal / MRT / Vd / half-life / Ae0–24 h / GI24 h: mean ± SD, n = 11; for AUC(0-t) / AUC / clearance / CL renal / MRT / Vd / half-life: mouse, plasma, iv, 15 mg/kg; for AUC(0-t): AUC480 min; for AUC: time zero to infinity; for clearance: CL; for CL renal: CLR; for Vd: Vss; for half-life: t1/2, mice; for Ae0–24 h: zidovudine excreted into urine for 24 h; for GI24 h: zidovudine remaining or excreted in GI at 24 h
UGT1A6 = biological target: T4, UGT1A6 (Homo sapiens, UniProt P19224); assay: Inhibition of UGT1A6 (serotonin glucuronidation) in human liver microsomes; format: in vitro ADME
T4 construct: tissue Corning Life Sciences 452156; host or cells: pooled human liver microsomes
T4 sequence (P19224 27-532): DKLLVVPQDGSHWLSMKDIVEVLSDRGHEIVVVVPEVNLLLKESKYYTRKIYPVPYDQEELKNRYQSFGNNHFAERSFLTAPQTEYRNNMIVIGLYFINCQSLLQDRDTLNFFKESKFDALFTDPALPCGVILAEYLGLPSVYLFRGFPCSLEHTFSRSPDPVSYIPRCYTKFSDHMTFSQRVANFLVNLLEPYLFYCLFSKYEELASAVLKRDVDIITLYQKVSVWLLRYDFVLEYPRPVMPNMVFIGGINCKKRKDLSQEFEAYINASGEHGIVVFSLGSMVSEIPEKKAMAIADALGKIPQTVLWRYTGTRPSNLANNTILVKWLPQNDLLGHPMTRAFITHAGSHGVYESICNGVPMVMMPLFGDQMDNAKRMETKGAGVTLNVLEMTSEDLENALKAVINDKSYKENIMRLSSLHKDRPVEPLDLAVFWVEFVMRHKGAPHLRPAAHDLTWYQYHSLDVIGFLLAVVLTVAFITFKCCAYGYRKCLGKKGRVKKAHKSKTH
Description: as §1

UGT1A1 = biological target: T5, UGT1A1 (Homo sapiens, UniProt P22309); assay: Inhibition of UGT1A1 (β-estradiol glucuronidation) in human liver microsomes; format: in vitro ADME; details: substrate 10 μM β-estradiol, mean (minimum–maximum)
T5 construct: The reaction mixture containing 0.25 mg/mL protein of HLM; tissue Corning Life Sciences 452156; host or cells: pooled human liver microsomes, 50 donors
T5 sequence (P22309 26-533): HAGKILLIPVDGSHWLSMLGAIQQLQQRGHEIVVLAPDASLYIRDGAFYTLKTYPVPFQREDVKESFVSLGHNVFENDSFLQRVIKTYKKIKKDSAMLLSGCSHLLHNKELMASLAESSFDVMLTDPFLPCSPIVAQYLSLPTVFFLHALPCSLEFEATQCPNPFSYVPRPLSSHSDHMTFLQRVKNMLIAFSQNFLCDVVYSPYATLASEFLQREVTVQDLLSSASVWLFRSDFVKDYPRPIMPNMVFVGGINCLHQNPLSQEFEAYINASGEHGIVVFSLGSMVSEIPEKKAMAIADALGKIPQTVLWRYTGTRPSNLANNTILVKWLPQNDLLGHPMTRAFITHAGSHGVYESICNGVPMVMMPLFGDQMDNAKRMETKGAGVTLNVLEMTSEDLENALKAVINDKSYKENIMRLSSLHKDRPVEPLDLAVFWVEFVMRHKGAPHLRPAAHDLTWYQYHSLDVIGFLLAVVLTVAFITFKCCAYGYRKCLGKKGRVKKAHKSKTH
Description: as §1

[2] = substrate: NCCc1c[nH]c2ccc(O)cc12; assay: purified protein, by the assay type; details: other: without sauchinone; pH 7.6; 37.0 °C
[3] = mice, zidovudine 15 mg/kg iv with oral 100 mg/kg sauchinone
[4] = mice, zidovudine 15 mg/kg iv with vehicle
[5] = mice, zidovudine 15 mg/kg iv, oral 100 mg/kg sauchinone

IC50 (UGT1A9): 0.755 µM
Molecule: O=C(O)c1cccnc1Nc1cccc(C(F)(F)F)c1 [Niflumic acid]

IC50 (UGT1A1): 28.3 µM
Molecule: O=c1cc(-c2ccccc2)oc2cc(O)cc(O)c12 [Chrysin]

The remaining lines, values behind:

Molecule: C[C@@H]1CC[C@@]2(OC1)O[C@H]1C[C@H]3[C@@H]4CC[C@H]5C[C@@H](O)CC[C@]5(C)[C@H]4CC(=O)[C@]3(C)[C@H]1[C@@H]2C [Hecogenin]
IC50 (UGT1A4): 3.99 µM

Molecule: Cc1cn([C@H]2C[C@H](N=[N+]=[N-])[C@@H](CO)O2)c(=O)[nH]c1=O [zidovudine]
Km (UGT2B7): 85 µM
CLNR [1, 3]: 24.5 ± 9.31 ^a mL/min/kg
CLNR [1, 4]: 34.8 ± 10.5 mL/min/kg
decrease of CL of zidovudine with sauchinone compared to without [1, 5]: 29.3%
decrease of CLNR of zidovudine with sauchinone compared to without [1, 5]: 29.6%
increase of AUC480 min of zidovudine with sauchinone compared to without [1, 5]: 53.1%
AUC(0-t) [1, 3]: 5.73 µg·h/mL
AUC(0-t) [1, 4]: 3.78 µg·h/mL
AUC [1, 3]: 5.82 µg·h/mL
AUC [1, 4]: 3.8 µg·h/mL
clearance [1, 3]: 2.92 ± 0.966 L/h/kg
clearance [1, 4]: 4.12 ± 1.12 L/h/kg
CL renal [1, 3]: 1.44 ± 0.481 L/h/kg
CL renal [1, 4]: 2.04 ± 0.672 L/h/kg
MRT [1, 3]: 0.725 h
MRT [1, 4]: 0.93 h
Vd [1, 3]: 2.1 ± 1.23 L/kg
Vd [1, 4]: 3.31 ± 1.67 L/kg
half-life ([1]; zidovudine 15 mg/kg iv with oral 100 mg/kg sauchinone): 2.97 ± 1.55 h
half-life ([1]; zidovudine 15 mg/kg iv with vehicle): 3.45 ± 2.22 h
Ae0–24 h [1, 3]: 50.2 ± 8.41 % of dose
Ae0–24 h [1, 4]: 50.3 ± 8.01 % of dose
GI24 h [1, 3]: 0.321 ± 0.646 % of dose
GI24 h [1, 4]: 0.672 ± 0.999 % of dose

Molecule: Oc1cccc2ccccc12 [1-Naphthol]
IC50 (UGT1A6): 35.2 µM

B1: UGT1A6 (Homo sapiens) (protein)
chain: DKLLVVPQDGSHWLSMKDIVEVLSDRGHEIVVVVPEVNLLLKESKYYTRKIYPVPYDQEELKNRYQSFGNNHFAERSFLTAPQTEYRNNMIVIGLYFINCQSLLQDRDTLNFFKESKFDALFTDPALPCGVILAEYLGLPSVYLFRGFPCSLEHTFSRSPDPVSYIPRCYTKFSDHMTFSQRVANFLVNLLEPYLFYCLFSKYEELASAVLKRDVDIITLYQKVSVWLLRYDFVLEYPRPVMPNMVFIGGINCKKRKDLSQEFEAYINASGEHGIVVFSLGSMVSEIPEKKAMAIADALGKIPQTVLWRYTGTRPSNLANNTILVKWLPQNDLLGHPMTRAFITHAGSHGVYESICNGVPMVMMPLFGDQMDNAKRMETKGAGVTLNVLEMTSEDLENALKAVINDKSYKENIMRLSSLHKDRPVEPLDLAVFWVEFVMRHKGAPHLRPAAHDLTWYQYHSLDVIGFLLAVVLTVAFITFKCCAYGYRKCLGKKGRVKKAHKSKTH
Km [2]: 126 µM
Vmax [2]: 174 μM/min/mg protein
